From PMC3516570, “The GM2 Glycan Serves as a Functional Coreceptor for Serotype 1 Reovirus” (PLoS Pathogens, 2012)

B1: reovirus type 1 Lang (T1L) σ1, construct σ1_(long) (amino acids 261–470), GCN4 domain and His6-tag removed (domain or fragment)
chain: LESAKIDSVLPPLTVREASGVRTLSFGYDTSDFTIINSVLSLRSRLTLPTYRYPLELDTANNRVQVADRFGMRTGTWTGQLQYQHPQLSWRANVTLNLMKVDDWLVLSFSQMTTNSIMADGKFVINFVSGLSSGWQTGDTEPSSTIDPLSTTFAAVQFLNNGQRIDAFRIMGVSEWTDGELEIKNYGGTYTGHTQVYWAPWTIMYPCNVR
notes: Made as His6-GCN4(trimeric)-σ1(261–470) in pQE-80L; Crystals were soaked with GM2 or GM3 glycan; also called cleaved σ1_(long); σ1 attachment protein; not shown: His6, N-terminal, cleaved; GCN4 trimeric leucine zipper, N-terminal, cleaved

Legend:
[1] = target: T1, T1L σ1long (Mammalian orthoreovirus 1 Lang, UniProt P04506); experiment: X-ray crystal structure ([…] Å); also STD NMR; format: binding; settings: crystal soak with 20 mM glycan; same site as GM2 glycan; STD NMR pH 7.4, 283 K
T1 construct: gene S1; residues 261-470, three C-terminal beta-spirals plus head; E. coli; trimeric GCN4 zipper and His6-tag removed by trypsin (kept for glycan array); trimer

[2] = target: the molecule itself; experiment: crystal structure; crystals of cleaved σ1_(long) grown in 0.1 M Na cacodylate (pH 6.0–6.6), 1.2–1.5 M (NH4)2SO4 at 4°C, soaked with 20 mM GM2 or GM3 oligosaccharide; space group P3_(2)21; 3.6 Å (GM2) and 3.5 Å (GM3)

Molecule | X-ray crystal structure (3.5 Å); also STD NMR [1] | stoichiometry N [2]
CC(=O)N[C@H]1[C@H]([C@H](O)[C@H](O)CO)O[C@@](O[C@H]2[C@@H](O)[C@@H](CO)O[C@@H](O[C@H]3[C@H](O)[C@@H](O)C(O)O[C@@H]3CO)[C@@H]2O)(C(=O)O)C[C@@H]1O (some centres unmarked) [GM3 glycan] | 4GU4 (T1L σ1-GM3 glycan complex) | –
B1 | – | 3
